Measured values from patent US9902701B2, “Pyridazones and triazinones for treatment and prophylaxis of hepatitis B virus infection” (priority 2014, dated 2018).

test system: HBsAg; assay: HBsAg assay: chemiluminescence immunoassay (CLIA) of secreted HBsAg in supernatant of HepG2.2.15 cells; type: cell-based, HBV; details: Hepatitis B virus
Procedure: HepG2.2.15 cells (Acs et al. Proc Natl Acad Sci USA, 84, (1987), 4641-4), a constitutively HBV-expressing cell line were cultured in DMEM+Glutamax-I medium (Invitrogen, Carlsbad, Calif., USA), supplemented with 10% fetal bovine serum (Invitrogen) and G418 (Invitrogen) at a final concentration of 200 mg/L and maintained in 5% CO2 at 37° C.
HepG2.2.15 cells were seeded in duplicate into white, 96-well plates at 1.5×10^4 cells/well. The cells were treated with a three-fold serial dilution series of the compounds in DMSO. The final DMSO concentration in all wells was 1% and DMSO was used as no drug control.
The HBsAg chemiluminescence immunoassay (CLIA) kit (Autobio Diagnostics Co., Zhengzhou, China, Catalog number: CL0310-2) was used to measure the levels of secreted HBV antigens semi-quantitatively. For the detection 50 μL/well culture supernatant was used and HBsAg was quantified using HBsAg chemiluminescence immunoassay (CLIA) kit (Autobio Diagnostics Co., Zhengzhou, China, Catalog number: CL0310-2), 50 μL of the supernatant was transferred to the CLIA assay plate and 50 μL of enzyme conjugate reagent was added into each well. The plates were sealed and gently agitated for 1 hour at room temperature. The supernatant-enzyme-mixture was discarded and wells were washed 6 times with 300 μL of PBS. The residual liquid was removed by plating the CLIA plate […] on absorbent tissue paper. 25 μL of substrates A and B were added to each well. Luminance was measured using a luminometer (Mithras LB 940 Multimode Microplate Reader) after 10 minutes incubation. Dose-response curves were generated and the IC50 value was extrapolated by using the E-WorkBook Suite (ID Business Solutions Ltd., Guildford, UK). The IC50 was defined as the compound concentration (or conditioned media log dilution) at which HBsAg secretion was reduced by 50% compared to the no drug control.

Compound	IC50 [nM]
CN(C(=O)CN1N=C(c2ccc(C(F)(F)F)cc2)CCC1=O)c1cccc(F)c1 [Example 1-42, N-(3-Fluorophenyl)-N-methyl-2-[6-oxo-3-[4-(trifluoromethyl)phenyl]-4,5-dihydropyridazin-1-yl]acetamide]	520
CN(C(=O)CN1N=C(c2ccc(Cl)c(Cl)c2)CCC1=O)c1ccc(Cl)cc1 [Example 1-46, N-(4-Chlorophenyl)-2-[3-(3,4-dichlorophenyl)-6-oxo-4,5-dihydropyridazin-1-yl]-N-methyl-acetamide]	420
Cc1cc(C2=NN(CC(=O)N(C)c3ccc(F)c(C(F)(F)F)c3)C(=O)CC2)ccc1F [Example 1-37, 2-[3-(4-Fluoro-3-methyl-phenyl)-6-oxo-4,5-dihydropyridazin-1-yl]-N-[4-fluoro-3-(trifluoromethyl)phenyl]-N-methyl-acetamide]	3140
CN(C(=O)Cn1nc(-c2ccc(Cl)cc2)ccc1=O)c1ccc(Cl)cc1 [Example 2-5, N-(4-Chlorophenyl)-2-[3-(4-chlorophenyl)-6-oxo-pyridazin-1-yl]-N-methyl-acetamide]	1770
CN(C(=O)CN1N=C(c2ccc(Cl)cc2Cl)CCC1=O)c1ccc(Cl)cc1 [Example 1-54, N-(4-Chlorophenyl)-2-[3-(2,4-dichlorophenyl)-6-oxo-4,5-dihydropyridazin-1-yl]-N-methyl-acetamide]	1930
CN(C(=O)Cn1nc(-c2ccc(Cl)c(F)c2)ccc1=O)c1ccc(C(F)(F)F)cc1 [Example 2-2, 2-[3-(4-Chloro-3-fluorophenyl)-6-oxo-pyridazin-1-yl]-N-methyl-N-[4-(trifluoromethyl)phenyl]acetamide]	520
CN(C(=O)Cn1nc(-c2c(F)cccc2Cl)ccc1=O)c1ccc(C(F)(F)F)cc1 [Example 2-4, 2-[3-(2-Chloro-6-fluoro-phenyl)-6-oxo-pyridazin-1-yl]-N-methyl-N-[4-(trifluoromethyl)phenyl]acetamide]	4760
CN(C(=O)CN1N=C(c2ccc(Cl)cc2)CCC1=O)c1cccc(Cl)c1 [Example 1-18, N-(3-Chlorophenyl)-2-[3-(4-chlorophenyl)-6-oxo-4,5-dihydropyridazin-1-yl]-N-methyl-acetamide]	900
CN(C(=O)CN1N=C(c2ccc(Cl)c(F)c2)CCC1=O)c1ccc(C(F)(F)F)cc1 [Example 1-25, 2-[3-(4-Chloro-3-fluoro-phenyl)-6-oxo-4,5-dihydropyridazin-1-yl]-N-methyl-N-[4-(trifluoromethyl)phenyl]acetamide]	240
CC(C)N(C(=O)c1ccc(N(C)C(=O)CN2N=C(c3ccc(Cl)cc3)CCC2=O)cc1)C(C)C [Example 1-12, 4-[[2-[3-(4-Chlorophenyl)-6-oxo-4,5-dihydropyridazin-1-yl]acetyl]-methyl-amino]-N,N-diisopropyl-benzamide]	885
Cc1cccc(N(C)C(=O)CN2N=C(c3ccc(Cl)cc3)CCC2=O)c1 [Example 1-21, 2-[3-(4-Chlorophenyl)-6-oxo-4,5-dihydropyridazin-1-yl]-N-methyl-N-(m-tolyl)acetamide]	2080
Cc1cc(C2=NN(CC(=O)N(C)c3cccc(C(F)(F)F)c3)C(=O)CC2)ccc1F [Example 1-35, 2-[3-(4-Fluoro-3-methyl-phenyl)-6-oxo-4,5-dihydropyridazin-1-yl]-N-methyl-N-[3-(trifluoromethyl)phenyl]acetamide]	4660
Cc1ccc(N(C)C(=O)CN2N=C(c3ccc(Cl)cc3)CCC2=O)cc1 [Example 1-7, 2-[3-(4-Chlorophenyl)-6-oxo-4,5-dihydropyridazin-1-yl]-N-methyl-N-(p-tolyl)acetamide]	2490
COc1ccc(N(C)C(=O)CN2N=C(c3ccc(Cl)cc3)CCC2=O)cc1 [Example 1-20, 2-[3-(4-Chlorophenyl)-6-oxo-4,5-dihydropyridazin-1-yl]-N-(4-methoxyphenyl)-N-methyl-acetamide]	5690
CN(C(=O)CN1N=C(c2ccc(F)cc2F)CCC1=O)c1ccc(C(F)(F)F)cc1 [Example 1-30, 2-[3-(2,4-Difluorophenyl)-6-oxo-4,5-dihydropyridazin-1-yl]-N-methyl-N-[4-(trifluoromethyl)phenyl]acetamide]	402
CN(C(=O)CN1N=C(c2ccc(F)cc2F)CCC1=O)c1ccc(Cl)cc1 [Example 1-33, N-(4-Chlorophenyl)-2-[3-(2,4-difluorophenyl)-6-oxo-4,5-dihydropyridazin-1-yl]-N-methyl-acetamide]	850
CN(C(=O)CN1N=C(c2ccc(C(F)(F)F)cc2)CCC1=O)c1ccc(C(F)(F)F)cc1 [Example 1-40, N-Methyl-2-[6-oxo-3-[4-(trifluoromethyl)phenyl]-4,5-dihydropyridazin-1-yl]-N-[4-(trifluoromethyl)phenyl]acetamide]	380
